The data set concerns Tetranychus cinnabarinus Boi, adult mite. Kind of data set: whole plant or invertebrate. The format is in vivo. As to the method: Test subject: Tetranychus cinnabarinus Boi, adult mite, indoor rearing sensitive strain.
Test condition: 25° C. constant temperature incubator, 60% relative humidity, light L:D=14:10
Test solution formulation: according to the test needs, accurately weigh the test sample more than 50 mg by using an electronic analytical balance, mixed with acetone to the required concentration, according to calculation, the sample of acetone solution added to a volumetric flask, diluted by aqueous solution with 0.1 wt % Tween 80 to obtain the required concentration of the solution.
Test method: One true leaf was removed after cutting the seedlings of beans, and one true leaf was added to the hydroponic glass jar after leaving the leaf to access about 50-150 adult Tetranychus cinnabarinus Boi of the same size, and the mite base was counted the next day. The Airbrush method was used to treat the test material with medicinal spray, 1.5 mL of medicinal spray was sprayed for each treatment, and a blank control was set for three treatments.
After spraying and drying naturally, the treated test material was placed in a constant temperature observation room. 72 hours later, the number of live mites was investigated and the mortality rate was calculated. The Bliss method was used for evaluation, and the theoretical mortality rate could be calculated by the following formula: P=Pm+Pn(1−Pm)
Pm is the mortality rate (%) of the target at a concentration of m for the first active component (active component a); Pn is the mortality rate (%) of the target at a concentration of n for the second active component (active component b).

[1] abbreviates: Tetranychus cinnabarinus, 72 h, single agent 0.01 mg/L, adult mites, 72 h after spraying, read-out: 72 h mortality rate.
Setting [2] is: Tetranychus cinnabarinus, 72 h, single agent 0.04 mg/L, adult mites, 72 h after spraying, read-out: 72 h mortality rate.
The mark [3] stands for this setting: Tetranychus cinnabarinus, 72 h, single agent 0.2 mg/L, adult mites, 72 h after spraying, read-out: 72 h mortality rate.
Setting [4] is: Tetranychus cinnabarinus, 72 h, single agent 0.4 mg/L, adult mites, 72 h after spraying, read-out: 72 h mortality rate.
[5] abbreviates: Tetranychus cinnabarinus, 72 h, single agent 0.8 mg/L, adult mites, 72 h after spraying, read-out: 72 h mortality rate.
The mark [6] stands for this setting: single agent 0.2 mg/L, adult mites, 72 h after spraying.
Setting [7] is: single agent 0.4 mg/L, adult mites, 72 h after spraying.
The mark [8] stands for this setting: single agent 0.8 mg/L, adult mites, 72 h after spraying.
[9] abbreviates: Tetranychus cinnabarinus, 72 h, read-out: 72 h mortality rate.
Setting [10] is: single agent 0.01 mg/L, adult mites, 72 h after spraying.
[11] abbreviates: single agent 0.04 mg/L, adult mites, 72 h after spraying.
Setting [12] is: single agent 1 mg/L, adult mites, 72 h after spraying.
Setting [13] is: single agent 5 mg/L, adult mites, 72 h after spraying.

Molecules are shown by their SMILES. Several values for one entry are separate records, joined by “and”; a condition that tells them apart may be missing. Equal values may be shown once. Read-outs that look alike come from different tables or passages of the source.

For orientation: mortality means the share of the test organisms that died. In the case of `COC(=O)c1ccccc1CNc1cc(SCC(F)(F)F)c(C)cc1F` [Compound A1], under setting [1], the mortality at 0.01 µg/mL worked out at 0%. Under setting [2], the mortality at 0.04 µg/mL amounted to 0%. Besides, the mortality at 0.2 µg/mL under setting [3] worked out at 27.9%. Further, the mortality at 0.4 µg/mL under setting [4] was 40.1%. Further, the mortality at 0.8 µg/mL under setting [5] was found to be 74.6%. Also, the “72 h mortality rate” value is 22.2% and 28.1% and 26.8% and 19.8% under setting [6]; 40.4% and 43.3% and 41.7% and 42.3% under setting [7]; 74.3% and 72.6% and 72.7% and 74.1% under setting [8].
As for `COC(=O)c1ccccc1CNc1cc(SCC(F)(F)F)c(Cl)cc1F` [Compound A9], the mortality at 0.01 µg/mL under setting [1] came to 0%. Further, the mortality at 0.04 µg/mL under setting [2] stood at 0%. Also, under setting [3], the mortality at 0.2 µg/mL is 19.8%. The mortality at 0.4 µg/mL under setting [4] turned out to be 42.2%. In addition, the mortality at 0.8 µg/mL under setting [5] worked out at 62.3%. Besides, the “72 h mortality rate” value reads like this: under setting [6], 18.5% and 27.5% and 22.1% and 22.4%; under setting [7], 41.9% and 36.0% and 40.8% and 34.5%; under setting [8], 64.1% and 67.1% and 64.6% and 65.8%.
Take `CC[C@H](C)[C@H]1O[C@]2(C=C[C@@H]1C)C[C@@H]1C[C@@H](C/C=C(\C)[C@@H](O[C@H]3C[C@H](OC)[C@@H](O[C@H]4C[C@H](OC)[C@@H](O)[C@H](C)O4)[C@H](C)O3)[C@@H](C)/C=C/C=C3\CO[C@@H]4[C@H](O)C(C)=C[C@@H](C(=O)O1)[C@]34O)O2` [avermectin]: under setting [9], the mortality at 0.0005 µg/mL turned out to be 0%, the mortality at 0.0025 µg/mL worked out at 14.8%, the mortality at 0.01 µg/mL was found to be 37.3% and the mortality at 0.02 µg/mL was 70%.
Turning to `Clc1ccccc1-c1nnc(-c2ccccc2Cl)nn1` [clofentezine], under setting [9], the mortality at 0.04 µg/mL was 0%, the mortality at 0.2 µg/mL was 0%, the mortality at 1 µg/mL turned out to be 9.1% and the mortality at 8 µg/mL is 18.2%. Also, the mortality at 40 µg/mL under setting [9] turned out to be 41.3%.
Turning to `CCn1nc(C)cc1/C(OC(=O)C(C)(C)C)=C(/C#N)c1ccc(C(C)(C)C)cc1` [cyetpyrafen], the “72 h mortality rate” value by setting is: under setting [10], 0%; (single agent 0.05 mg/L, adult mites, 72 h after spraying) 2.8%; (single agent 0.1 mg/L, adult mites, 72 h after spraying) 17.0%; under setting [6], 37.9%; (single agent 0.5 mg/L, adult mites, 72 h after spraying) 75.5%.
Take `CCOc1cc(C(C)(C)C)ccc1C1COC(c2c(F)cccc2F)=N1` (stereo not drawn) [etoxazole]: under setting [9], the mortality at 0.01 µg/mL came to 0%, the mortality at 0.04 µg/mL amounted to 0%, the mortality at 0.2 µg/mL is 9.3% and the mortality at 0.4 µg/mL turned out to be 21.4%. Further, under setting [9], the mortality at 1 µg/mL came to 26.6% and the mortality at 5 µg/mL came to 43.6%.
For the molecule `C[C@@H]1[C@@H](c2ccc(Cl)cc2)SC(=O)N1C(=O)NC1CCCCC1` [hexythiazox], under setting [9], the mortality at 0.04 µg/mL worked out at 0%, the mortality at 0.2 µg/mL worked out at 12.8%, the mortality at 1 µg/mL stood at 21.3% and the mortality at 8 µg/mL stood at 36.3%. For the same molecule, the mortality at 40 µg/mL under setting [9] turned out to be 69.5%.
Turning to `C#CCOS(=O)OC1CCCCC1Oc1ccc(C(C)(C)C)cc1` (stereo not drawn) [propargite], under setting [9], the mortality at 0.1 µg/mL came to 0%, the mortality at 0.4 µg/mL is 0%, the mortality at 4 µg/mL turned out to be 3.9% and the mortality at 25 µg/mL turned out to be 34.1%.
For the molecule `CCC(C)(C)C(=O)OC1=C(c2ccc(Cl)cc2Cl)C(=O)OC12CCCCC2` [spirodiclofen], the “72 h mortality rate” value is on record as 0% under setting [10]; 0% under setting [11]; 0% under setting [6]; 9.4% under setting [7]; 24.2% under setting [12]; 56.9% under setting [13].
As to `Cc1cc(C)c(C2=C(OC(=O)CC(C)(C)C)C3(CCCC3)OC2=O)c(C)c1` [spiromesifen], the “72 h mortality rate” value under setting [10] worked out at 0%; the “72 h mortality rate” value under setting [11] is on record as 0%; the “72 h mortality rate” value under setting [6] came to 0%; the “72 h mortality rate” value under setting [7] is on record as 14.1%; the “72 h mortality rate” value under setting [12] is 30.4%; the “72 h mortality rate” value under setting [13] came out at 64.9%.
